In brackets after ≈: the same amount, converted by molar mass. Like-named read-outs stand apart in the source and are kept apart here. Blank lines part the entries; values can stand above or below the compound they belong to.
Assays:
[1] = Aqueous kinetic solubility in PBS pH 7.4; format: physicochemical; details: pH 7.4, aqueous buffer, kinetic from dmso stock; for solubility kinetic: Table 10; for solubility at 24 h: PBS
[2] = In vitro metabolic stability, mouse liver microsomes; format: in vitro ADME; design: dose or concentration left out as unconfirmed
Experimental: In vitro metabolic stability. Microsomes stability experiments. In vitro incubation with mouse microsomes (NADPH and UDPG system). […] At time zero, cofactors were added. […] The mixture was kept at 37° C. under shaking. Aliquots (50 mL) were taken at various time points and crashed with 0.15 mL of CH3CN spiked with 500 nM warfarin (internal standard). Reference incubation, with microsomes but without cofactors, was kept at 37° C. and sampled at the end of the time course. After vortexing and centrifugation, 3 mL of supernatant were analyzed by LCMS/MS and detected by multiple reaction monitoring (MRM).

[3] = Plasma stability; format: in vitro ADME; design: dose or concentration left out as unconfirmed; details: mouse plasma
[4] = system: h-AC
[5] = biological target: h-AC (Homo sapiens (Human), UniProt Q13510); assay: biochemical; details: read-out: h-AC inh (%) 30 μM
[6] = Pharmacokinetics study in mice; format: in vivo, mouse; details: for Kp: brain and plasma
Experimental: Compounds were administered orally or intravenously to C57B6/J mice at 3 mg/kg and 3 mg/kg dose, respectively. Vehicle was PEG400/Tween80/saline solution at 15/15/70% in volume, respectively. Three animals per dose were used. […] Control animals treated with vehicle were also included in the study. Animals were sacrificed at time-points and blood and brain samples were collected. […] Brain samples were homogenized in RIPA buffer (150 mM NaCl, 1.0% Triton X-100, 0.5% sodium deoxycholate, 0.1% sodium dodecyl sulfate, 50 mM Tris, pH 8.0) and were then split in two aliquots kept at −80° C. until analysis. An aliquot was used for compound brain level evaluations, following the same procedure described below for plasma samples. The second aliquot was kept for protein content evaluation by bicinchoninic acid (BCA) assay. Samples (plasma and brain homogenate) were thawed in an ice bath, then centrifuged for 20 min and an aliquot of each (50 μL) was transferred into a 96-deepwell plate and added with 150 μl of the extraction solution, consisting of cold acetonitrile spiked with 200 nM of a structural analog of the analyte (14), closely eluting with the analyte itself, as internal standard. After agitation (3 min) the plate was centrifuged at 3000×g for 20 min at 4° C. 80 μl of supernatant was then transferred in a 96-well plate and added with 80 μL of H2O. Standard compound was spiked in net solvent (PBS pH 7.4 added with 20% CH3CN) to prepare a calibration curve over the 1 nM-10 μM range. 3 quality controls samples were also prepared spiking the compound in blank mouse plasma to final 20, 200 and 2000 nM concentrations. Calibrators and QCs were crashed with the same extraction solution used for the plasma samples. Dosing solutions, previously diluted 100000 fold in the net solvent, were also included in the samples and tested. […] Column and UPLC-MS system were purchased from Waters Inc. Milford, USA. Flow rate was set 0.5 mL/min. Eluents were A=H2O and B═CH3CN, both added with 0.1% formic acid. […] The time/concentration profiles measured with the above mentioned system were then analyzed using PK Solutions Excel application (Summit Research Service, USA) to derive the pharmacokinetic data (Maximum observed concentration (Cmax); maximum time (Tmax); cumulative area under curve (AUC) for experimental time points; distribution volume (Vd); systemic clearance (Cl)).

[7] = 25 °C, read-out: Aq. Kinetic Solubility
[8] = phosphate-buffered saline (PBS), 25 °C, Table 11, read-out: Aq. Kinetic Solubility
[9] = pH 7.4, read-out: m-LM stab. t1/2
[10] = phosphate-buffered saline (PBS) pH 7.4, 25 °C, Table 9, read-out: Aq. Skin
[11] = 3 mg/kg, CD1 mouse, iv 3 mpk, brain
[12] = 3 mg/kg, CD1 mouse, iv 3 mpk, plasma
[13] = C57B6/J, 10 mg/kg, C57 mouse, po 10 mpk, brain
[14] = C57B6/J, 10 mg/kg, C57 mouse, po 10 mpk, plasma
[15] = C57B6/J, 30 mg/kg, C57 mouse, po 30 mpk, brain
[16] = C57B6/J, 30 mg/kg, C57 mouse, po 30 mpk, plasma

solubility kinetic [1, 7]: < 1 µM
Structure (SMILES): CCCCS(=O)(=O)c1ccccc1C(=O)N1CCN(c2nc3ccc(F)cc3s2)CC1 [CH2CH2CH2CH3]

solubility kinetic [1, 7]: 49 µM (≈ 22.7 µg/mL)
Structure (SMILES): O=C(c1ccccc1S(=O)(=O)CCCO)N1CCN(c2nc3ccc(F)cc3s2)CC1 [CH2CH2CH2OH]

solubility kinetic [1, 7]: < 1 µM
Structure (SMILES): CCCS(=O)(=O)c1ccccc1C(=O)N1CCN(c2nc3ccc(F)cc3s2)CC1 [CH2CH2CH3]

solubility kinetic at 24 h [1, 8]: 181 µM (≈ 77.8 µg/mL)
Structure (SMILES): CCS(=O)(=O)c1ccccc1C(=O)N1CCN(c2nc3ccc(C)cc3s2)CC1 [CH3]

solubility kinetic at 24 h [1, 8]: 2 µM (≈ 0.9 µg/mL)
Structure (SMILES): CCS(=O)(=O)c1ccccc1C(=O)N1CCN(c2nc3ccc(Cl)cc3s2)CC1 [Cl]

half-life [2, 9]: > 60 min
half-life ([3]; read-out: m-plasma stab. t1/2): > 120 min
Structure (SMILES): CCS(=O)(=O)c1ccccc1C(=O)N1CCN(c2nc3ccc(F)cc3s2)CC1 [Cmpd 1]

solubility kinetic at 24 h [1, 10]: > 250 µM
half-life [2, 9]: 27 min
half-life ([3]; read-out: m-plasma stab. t1/2): > 120 min
inhibition at 30 µM [5]: 0%
Structure (SMILES): CCS(=O)(=O)c1ccccc1C(=O)N1CCN(c2nc3ccccc3o2)CC1 [Cmpd 6]
h-AC inh (%) 30 μM [4]: 64%

inhibition at 30 µM [5]: 4%
Structure (SMILES): CCS(=O)(=O)c1ccccc1C(=O)N1CCN(c2nc3c(F)cc(F)cc3s2)CC1 [Cmpd 34]
h-AC inh (%) 30 μM [4]: 17%

solubility kinetic at 24 h [1, 10]: 7 µM (≈ 3.16 µg/mL)
half-life [2, 9]: > 60 min
half-life ([3]; read-out: m-plasma stab. t1/2): > 120 min
inhibition at 30 µM [5]: 0%
Structure (SMILES): CCS(=O)(=O)c1ccccc1C(=O)N1CCN(c2nc3ccc(F)c(F)c3s2)CC1 [Cmpd 35]
h-AC inh (%) 30 μM [4]: 12%

Cmax [6, 11]: 1610 ng/mL
Tmax [6, 11]: 5 min
half-life [6, 11]: 43.5 min
AUC ([6]; 3 mg/kg, CD1 mouse, iv 3 mpk, brain, read-out: AUC): 867 ng·h/mL
Cmax [6, 12]: 1810 ng/mL
Tmax [6, 12]: 5 min
clearance [6, 12]: 31 mL/min/kg
half-life [6, 12]: 53.6 min
AUC ([6]; 3 mg/kg, CD1 mouse, iv 3 mpk, plasma, read-out: AUC): 1550 ng·h/mL
Vd ([6]; 3 mg/kg, CD1 mouse, iv 3 mpk, plasma, read-out: Vss): 2.4 L/kg
Cmax [6, 13]: 392 ng/mL
Tmax [6, 13]: 30 min
half-life [6, 13]: 73.3 min
AUC ([6]; C57B6/J, 10 mg/kg, C57 mouse, po 10 mpk, brain, read-out: AUC): 1340 ng·h/mL
Cmax [6, 14]: 1470 ng/mL
Tmax [6, 14]: 30 min
half-life [6, 14]: 80.4 min
AUC ([6]; C57B6/J, 10 mg/kg, C57 mouse, po 10 mpk, plasma, read-out: AUC): 5340 ng·h/mL
Cmax [6, 15]: 2240 ng/mL
Tmax [6, 15]: 15 min
half-life [6, 15]: 188 min
AUC ([6]; C57B6/J, 30 mg/kg, C57 mouse, po 30 mpk, brain, read-out: AUC): 3230 ng·h/mL
Cmax [6, 16]: 5170 ng/mL
Tmax [6, 16]: 15 min
half-life [6, 16]: 84.3 min
AUC ([6]; C57B6/J, 30 mg/kg, C57 mouse, po 30 mpk, plasma, read-out: AUC): 46200 ng·h/mL
Kp ([6]; C57B6/J, 10 mg/kg, C57 mouse, po 10 mpk, read-out: AUCbrain/AUCplasma): 0.251
Kp ([6]; C57B6/J, 30 mg/kg, C57 mouse, po 30 mpk, read-out: AUCbrain/AUCplasma): 0.07
Total AUC (AUCplasma + AUCbrain) ([6]; C57 mouse, po 10 mpk): 6683
% distribution (AUC organ/(AUCplasma + AUCbrain)) ([6]; C57 mouse, po 10 mpk, brain): 20%
% distribution (AUC organ/(AUCplasma + AUCbrain)) ([6]; C57 mouse, po 10 mpk, plasma): 80%
Cl ([6]; C57 mouse, po 10 mpk, plasma): 30.429 mL/min/kg
Vss ([6]; C57 mouse, po 10 mpk, plasma): 3.53 L/kg
Total AUC ([6]; C57 mouse, po 30 mpk): 49447.7
% distribution ([6]; C57 mouse, po 30 mpk, brain): 7%
% distribution ([6]; C57 mouse, po 30 mpk, plasma): 93%
Cl ([6]; C57 mouse, po 30 mpk, plasma): 10.817 mL/min/kg
Vss ([6]; C57 mouse, po 30 mpk, plasma): 1.32 L/kg
Total AUC ([6]; CD1 mouse, iv 3 mpk): 2421.5
% distribution ([6]; CD1 mouse, iv 3 mpk, brain): 36%
% distribution ([6]; CD1 mouse, iv 3 mpk, plasma): 64%
Kp ([6]; 3 mg/kg, CD1 mouse, iv 3 mpk, read-out: AUCbrain/AUCplasma): 0.557
Structure (SMILES): CCS(=O)(=O)c1ccccc1C(=O)N1CCN(c2nc3ccc(F)cc3s2)C[C@@H]1C [Compound 8, (2-ethylsulfonylphenyl)-[(2S)-4-(6-fluoro-1,3-benzothiazol-2-yl)-2-methyl-piperazin-1-yl]methanone]

half-life [2, 9]: 16 min
half-life ([3]; read-out: m-plasma stab. t1/2): > 120 min
Structure (SMILES): CCS(=O)(=O)c1ccccc1C(=O)N1CCN(c2nc3c(F)cccc3s2)CC1 [Compound 8]

solubility at 24 h ([1]; phosphate-buffered saline (PBS), 25 °C, Table 5): 165 µM (≈ 73.8 µg/mL)
solubility at 24 h ([1]; phosphate-buffered saline (PBS), 25 °C, Table 7): 139 ± 1 µM (≈ 62.2 µg/mL)
half-life ([2]; pH 7.4, NADPH, read-out: MLM (NADPH) t1/2): > 60 min
half-life ([3]; Table 5, read-out: Plasma t1/2): > 120 min
Kp ([6]; C57B6/J, mouse, 3 mg/kg, mice, oral administration, read-out: brain-to-plasma ratio): 0.25
Tmax ([6]; C57B6/J, mouse, plasma, oral 3 mg/kg, mice): 30 min
AUC ([6]; C57B6/J, mouse, plasma, oral 3 mg/kg, mice, read-out: AUCplasma): 988 ng·h/mL
Cmax ([6]; C57B6/J, mouse, oral 3 mg/kg, mice, plasma): 613 ng/mL
Structure (SMILES): CCS(=O)(=O)c1ccccc1C(=O)N1CCN(c2nc3ccc(F)cc3s2)C[C@@H]1C [Compound 8]

half-life [2, 9]: 16 min
half-life ([3]; read-out: m-plasma stab. t1/2): > 120 min
inhibition at 30 µM [5]: -3%
Structure (SMILES): CCS(=O)(=O)c1ccccc1C(=O)N1CCN(c2nc3cccc(F)c3s2)CC1 [Compound 9]

half-life [2, 9]: > 60 min
half-life ([3]; read-out: m-plasma stab. t1/2): > 120 min
inhibition at 30 µM [5]: 2%
Structure (SMILES): CCCS(=O)(=O)c1ccccc1C(=O)N1CCN(c2nc3ccc(F)cc3s2)CC1 [Compound 11]

half-life [2, 9]: > 60 min
half-life ([3]; read-out: m-plasma stab. t1/2): > 120 min
inhibition at 30 µM [5]: -3%
Structure (SMILES): O=C(c1ccccc1S(=O)(=O)C1CCC1)N1CCN(c2nc3ccc(F)cc3s2)CC1 [Compound 12]

half-life [2, 9]: > 60 min
half-life ([3]; read-out: m-plasma stab. t1/2): > 120 min
Structure (SMILES): O=C(c1ccccc1S(=O)(=O)C1COC1)N1CCN(c2nc3ccc(F)cc3s2)CC1 [Compound 13]

inhibition at 30 µM [5]: 25%
Structure (SMILES): CCS(=O)(=O)c1ccccc1C(=O)N1CCN(c2nc3ccc(F)cc3s2)C(C)C1 (centres unmarked) [Compound 16]

— US10556892B2, “Piperazinyl methanone NAAA inhibitors” (priority 2016, dated 2020)
